Results: ChEMBL document CHEMBL1201862, “PubChem BioAssay data set” (2004)
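Five compound concentrations were applied to cells in 96-well plates for 48 hours; endpoints were derived by simple linear interpolation of the resulting dose-response curve. At the GI50, growth is halved.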 The source made the active and inactive calls. No stated cut-off is given here; in the data, active = GI50 up to about 1.1 µM and inactive = higher.

How the values were obtained:
Test in all cases: NCI tumour cell line growth inhibition, 48 h
CAKI-1 = test system: CAKI-1
OVCAR-8 = test system: OVCAR-8
RXF 393 = test system: RXF 393
DU-145 = test system: DU-145
ACHN = test system: ACHN
SF-539 = test system: SF-539
PC-3 = test system: PC-3
EKVX = test system: EKVX
SNB-75 = test system: SNB-75
OVCAR-3 = test system: OVCAR-3
SNB-19 = test system: SNB-19
SF-295 = test system: SF-295
HOP-62 = test system: HOP-62
OVCAR-5 = test system: OVCAR-5
BT-549 = test system: BT-549
NCI-H522 = test system: NCI-H522
HCT-116 = test system: HCT-116
M14 = test system: M14
MDA-MB-435 = test system: MDA-MB-435
OVCAR-4 = test system: OVCAR-4

Measured: GI50

CCCCCC1=CC(=O)C1(Cl)Cl
inactive: CAKI-1 8.3 µM | OVCAR-8 10.6 µM | RXF 393 12.7 µM | DU-145 13.1 µM | ACHN 8.3 µM | SF-539 12.4 µM | PC-3 14.5 µM | EKVX 20.1 µM | SNB-75 11.1 µM | OVCAR-3 8.69 µM | SNB-19 24.9 µM | SF-295 18.9 µM | HOP-62 21.4 µM | OVCAR-5 15.4 µM | BT-549 17.9 µM | NCI-H522 5.24 µM | HCT-116 11.9 µM | M14 18.4 µM | MDA-MB-435 11.1 µM | OVCAR-4 15.9 µM

CC(=O)Oc1ccc(/C=C/C(=O)OCCOC(=O)/C=C/c2ccc(OC(C)=O)c(OC(C)=O)c2)cc1OC(C)=O
inactive: CAKI-1 3.26 µM | OVCAR-8 4.8 µM | RXF 393 7.76 µM | DU-145 9.06 µM | ACHN 4.05 µM | SF-539 2.72 µM | PC-3 12.1 µM | EKVX 14.8 µM | SNB-75 4.23 µM | OVCAR-3 5.36 µM | SNB-19 11.9 µM | SF-295 8.97 µM | HOP-62 1.26 µM | OVCAR-5 14.6 µM | BT-549 15.7 µM | NCI-H522 2.93 µM | HCT-116 4.66 µM | M14 10.8 µM | MDA-MB-435 6.55 µM | OVCAR-4 4.63 µM

CCCCc1ccc2[n+](c1)C(C(=O)OCC)=PC2 (stereo not given)
inactive: CAKI-1 > 100 µM | OVCAR-8 > 100 µM | RXF 393 31.9 µM | DU-145 > 100 µM | ACHN > 100 µM | SF-539 > 100 µM | PC-3 > 100 µM | EKVX > 100 µM | SNB-75 44.7 µM | OVCAR-3 > 100 µM | SF-295 > 100 µM | HOP-62 > 100 µM | OVCAR-5 > 100 µM | BT-549 > 100 µM | NCI-H522 54.2 µM | HCT-116 > 100 µM | M14 > 100 µM | MDA-MB-435 > 100 µM | OVCAR-4 > 100 µM

CC#CC(O)(C(=O)OC1CC(C)N(C)C(C)(C)C1)C1CCCC1 (stereo not given)
inactive: CAKI-1 > 100 µM | OVCAR-8 > 100 µM | RXF 393 > 100 µM | DU-145 > 100 µM | ACHN > 100 µM | SF-539 > 100 µM | PC-3 > 100 µM | EKVX > 100 µM | SNB-75 > 100 µM | OVCAR-3 > 100 µM | SNB-19 > 100 µM | SF-295 > 100 µM | HOP-62 > 100 µM | OVCAR-5 > 100 µM | BT-549 > 100 µM | NCI-H522 > 100 µM | HCT-116 > 100 µM | M14 > 100 µM | MDA-MB-435 > 100 µM

Cc1c(CN2CCN(C)CC2)c(CN2CCN(C)CC2)c(C)n1-c1ccc(Cl)cc1
inactive: CAKI-1 25.1 µM | OVCAR-8 19.9 µM | RXF 393 17.1 µM | DU-145 > 100 µM | ACHN 96.8 µM | PC-3 29.4 µM | EKVX 72.4 µM | SNB-75 25.9 µM | OVCAR-3 94.8 µM | SNB-19 > 100 µM | SF-295 21.2 µM | HOP-62 35.4 µM | OVCAR-5 53.7 µM | BT-549 45 µM | NCI-H522 20.5 µM | HCT-116 27.7 µM | M14 14.6 µM | MDA-MB-435 25.1 µM | OVCAR-4 79.1 µM

Cc1cc2c(cc1C)C(=O)C1(C2)Cc2cc3c(cc2C1=O)CCC3 (stereo not given)
inactive: CAKI-1 > 100 µM | OVCAR-8 > 100 µM | RXF 393 > 100 µM | DU-145 > 100 µM | ACHN > 100 µM | SF-539 4.95 µM | PC-3 > 100 µM | EKVX > 100 µM | SNB-75 > 100 µM | OVCAR-3 > 100 µM | SNB-19 > 100 µM | SF-295 > 100 µM | OVCAR-5 > 100 µM | BT-549 > 100 µM | NCI-H522 > 100 µM | HCT-116 > 100 µM | M14 44.1 µM | MDA-MB-435 > 100 µM | OVCAR-4 > 100 µM

Cc1c(O)ccc2c(O)c(NC(=O)c3ccc4c(c3)CCC(C)(C)O4)c(=O)oc12 [CYCLONOVOBIOCIC ACID]
inactive: CAKI-1 > 100 µM | OVCAR-8 > 100 µM | RXF 393 > 100 µM | DU-145 > 100 µM | ACHN > 100 µM | SF-539 > 100 µM | PC-3 > 100 µM | EKVX > 100 µM | SNB-75 > 100 µM | OVCAR-3 > 100 µM | SNB-19 > 100 µM | SF-295 > 100 µM | HOP-62 > 100 µM | OVCAR-5 > 100 µM | BT-549 > 100 µM | NCI-H522 > 100 µM | HCT-116 > 100 µM | MDA-MB-435 > 100 µM | OVCAR-4 > 100 µM
